Data published in US20250250227A1, “AMINO LIPID COMPOUND, PREPARATION METHOD THEREFOR, COMPOSITION THEREOF AND USE THEREOF” (SHENZHEN SHENXIN BIOTECHNOLOGY CO., LTD., priority 2022, published 2025).

Key:
Female BALB/c mice [1] = assay: Performance evaluation of in vivo delivery of Fluc mRNA lipid nanoparticle (IVIS, body and organs); conditions: Fluc mRNA LNP; for Liver (fluorescence expression intensity) / Spleen (fluorescence expression intensity): 75 μL IV; for Liver (fluorescence expression intensity) / Spleen (fluorescence expression intensity) / Total flux (fluorescence expression intensity) / (Spleen/Total Flux) * 100%: 6 hours after injection; for Liver (fluorescence expression intensity) / Spleen (fluorescence expression intensity) / Total flux (fluorescence expression intensity): IVIS; for Total flux (fluorescence expression intensity): 75 μL tail vein injection (IV); for (Spleen/Total Flux) * 100% / Multiple of spleen delivery/total delivery to amino lipid compound 118: IV; for Multiple of spleen delivery/total delivery to amino lipid compound 118: relative to amino lipid compound 118
Method in brief: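 Female BALB/c mice, 6-8 weeks, received 75 μL Fluc mRNA-LNP by tail-vein injection, 3 mice per formulation. At 6 h, 200 μL D-luciferin was injected, mice were anesthetized with isoflurane, and IVIS bioluminescence was imaged in body and organs.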

Female BALB/c mice [2] = assay: IFN-γ Elispot cellular immunity test, spleen lymphocytes of mice immunized with IN002.5.1 mRNA LNP; format: in vivo; conditions: 50 μL IM, spleen on 7th day after immunization, FIG. 2-4

SMILES	Liver (fluorescence expression intensity) (Female BALB/c mice [1])	Spleen (fluorescence expression intensity) (Female BALB/c mice [1])	Total flux (fluorescence expression intensity) (Female BALB/c mice [1])	(Spleen/Total Flux) * 100% (Female BALB/c mice [1]) [%]	Multiple of spleen delivery/total delivery to amino lipid compound 118 (Female BALB/c mice [1])	Cellular immunity effect (IFN-γ Elispot) compared to ALC0315 (Female BALB/c mice [2])
CCCCCCCOC(=O)CCN(CCCN(C)C)C(=O)OC(CCCCCCCCC(=O)OC(CCCCCC)CCCCCC)CCCCCCCCC(=O)OC(CCCCCC)CCCCCC [Compound 267]	9.91E+07	1.54E+06	4.01E+08	0.38	1.13	better cellular immunity effect
CCCCCCC(CCCCCC)OC(=O)CCCCCCCCC(CCCCCCCCC(=O)OC(CCCCCC)CCCCCC)OC(=O)N(CCCN(C)C)CCC(=O)OCCCC [Compound 264]	1.61E+08	8.05E+06	4.95E+08	1.63	4.78	better cellular immunity effect
CCCCCCCOC(=O)CN(CCCN(C)C)C(=O)OC(CCCCCCCCC(=O)OC(CCCCCC)CCCCCC)CCCCCCCCC(=O)OC(CCCCCC)CCCCCC [Compound 273]	4.33E+07	2.37E+06	1.78E+08	1.33	3.92	better cellular immunity effect
CCCCCCOC(=O)CN(CCCN(C)C)C(=O)OC(CCCCCCCCC(=O)OC(CCCCCC)CCCCCC)CCCCCCCCC(=O)OC(CCCCCC)CCCCCC [Compound 272]	7.42E+07	3.03E+06	4.04E+08	0.75	2.21	better cellular immunity effect
CCCCCCC(CCCCCC)OC(=O)CCCCCCCCC(CCCCCCCCC(=O)OC(CCCCCC)CCCCCC)OC(=O)N(CCCN(C)C)CC(=O)OCCCC [Compound 270]	1.34E+08	7.36E+06	4.40E+08	1.67	4.92	better cellular immunity effect
